Assays:
A549 [1] = experiment: Antiproliferative activity against human A549 cells after 48 hrs by sulforhodamine B assay; assay type: functional, cell-based; conditions: A549, 48 h
SK-OV-3 [2] = experiment: Cytotoxicity against human SKOV3 cells assessed as age growth inhibition at 10 uM after 48 hrs by sulforhodamine B assay; assay type: functional; conditions: SK-OV-3, 48 h, read-out: GI
A549 [3] = experiment: Cytotoxicity against human A549 cells assessed as age growth inhibition at 100 uM after 48 hrs by sulforhodamine B assay; assay type: functional; conditions: A549, 48 h, read-out: GI
HOP-62 [4] = experiment: Antiproliferative activity against human HOP62 cells after 48 hrs by sulforhodamine B assay; assay type: functional, cell-based; conditions: HOP-62, 48 h
SK-OV-3 [5] = experiment: Cytotoxicity against human SKOV3 cells assessed as age growth inhibition at 50 uM after 48 hrs by sulforhodamine B assay; assay type: functional; conditions: SK-OV-3, 48 h, read-out: GI
SF-295 [6] = experiment: Antiproliferative activity against human SF295 cells after 48 hrs by sulforhodamine B assay; assay type: functional, cell-based; conditions: SF-295, 48 h
COLO 205 [7] = experiment: Cytotoxicity against human COLO205 cells assessed as age growth inhibition at 10 uM after 48 hrs by sulforhodamine B assay; assay type: functional; conditions: COLO 205, 48 h, read-out: GI
IGROV-1 [8] = experiment: Cytotoxicity against human IGROV1 cells assessed as age growth inhibition at 100 uM after 48 hrs by sulforhodamine B assay; assay type: functional; conditions: IGROV-1, 48 h, read-out: GI
HEp-2 [9] = experiment: Cytotoxicity against human HEP2 cells assessed as age growth inhibition at 10 uM after 48 hrs by sulforhodamine B assay; assay type: functional; conditions: HEp-2, 48 h, read-out: GI
HEp-2 [10] = experiment: Antiproliferative activity against human HEP2 cells after 48 hrs by sulforhodamine B assay; assay type: functional, cell-based; conditions: HEp-2, 48 h
DU-145 [11] = experiment: Cytotoxicity against human DU145 cells assessed as age growth inhibition at 100 uM after 48 hrs by sulforhodamine B assay; assay type: functional; conditions: DU-145, 48 h, read-out: GI
A549 [12] = experiment: Cytotoxicity against human A549 cells assessed as age growth inhibition at 50 uM after 48 hrs by sulforhodamine B assay; assay type: functional; conditions: A549, 48 h, read-out: GI
SF-295 [13] = experiment: Cytotoxicity against human SF295 cells assessed as age growth inhibition at 10 uM after 48 hrs by sulforhodamine B assay; assay type: functional; conditions: SF-295, 48 h, read-out: GI
IGROV-1 [14] = experiment: Cytotoxicity against human IGROV1 cells assessed as age growth inhibition at 10 uM after 48 hrs by sulforhodamine B assay; assay type: functional; conditions: IGROV-1, 48 h, read-out: GI
DU-145 [15] = experiment: Cytotoxicity against human DU145 cells assessed as age growth inhibition at 10 uM after 48 hrs by sulforhodamine B assay; assay type: functional; conditions: DU-145, 48 h, read-out: GI
HOP-62 [16] = experiment: Cytotoxicity against human HOP62 cells assessed as age growth inhibition at 100 uM after 48 hrs by sulforhodamine B assay; assay type: functional; conditions: HOP-62, 48 h, read-out: GI
HOP-62 [17] = experiment: Cytotoxicity against human HOP62 cells assessed as age growth inhibition at 50 uM after 48 hrs by sulforhodamine B assay; assay type: functional; conditions: HOP-62, 48 h, read-out: GI
HCT-15 [18] = experiment: Antiproliferative activity against human HCT15 cells after 48 hrs by sulforhodamine B assay; assay type: functional, cell-based; conditions: HCT-15, 48 h
SK-OV-3 [19] = experiment: Cytotoxicity against human SKOV3 cells assessed as age growth inhibition at 100 uM after 48 hrs by sulforhodamine B assay; assay type: functional; conditions: SK-OV-3, 48 h, read-out: GI
A549 [20] = experiment: Cytotoxicity against human A549 cells assessed as age growth inhibition at 10 uM after 48 hrs by sulforhodamine B assay; assay type: functional; conditions: A549, 48 h, read-out: GI
DU-145 [21] = experiment: Antiproliferative activity against human DU145 cells after 48 hrs by sulforhodamine B assay; assay type: functional, cell-based; conditions: DU-145, 48 h
IGROV-1 [22] = experiment: Cytotoxicity against human IGROV1 cells assessed as age growth inhibition at 50 uM after 48 hrs by sulforhodamine B assay; assay type: functional; conditions: IGROV-1, 48 h, read-out: GI
COLO 205 [23] = experiment: Cytotoxicity against human COLO205 cells assessed as age growth inhibition at 50 uM after 48 hrs by sulforhodamine B assay; assay type: functional; conditions: COLO 205, 48 h, read-out: GI
HOP-62 [24] = experiment: Cytotoxicity against human HOP62 cells assessed as age growth inhibition at 10 uM after 48 hrs by sulforhodamine B assay; assay type: functional; conditions: HOP-62, 48 h, read-out: GI
HCT-15 [25] = experiment: Cytotoxicity against human HCT15 cells assessed as age growth inhibition at 100 uM after 48 hrs by sulforhodamine B assay; assay type: functional; conditions: HCT-15, 48 h, read-out: GI
HCT-15 [26] = experiment: Cytotoxicity against human HCT15 cells assessed as age growth inhibition at 10 uM after 48 hrs by sulforhodamine B assay; assay type: functional; conditions: HCT-15, 48 h, read-out: GI
HEp-2 [27] = experiment: Cytotoxicity against human HEP2 cells assessed as age growth inhibition at 100 uM after 48 hrs by sulforhodamine B assay; assay type: functional; conditions: HEp-2, 48 h, read-out: GI
DU-145 [28] = experiment: Cytotoxicity against human DU145 cells assessed as age growth inhibition at 50 uM after 48 hrs by sulforhodamine B assay; assay type: functional; conditions: DU-145, 48 h, read-out: GI
COLO 205 [29] = experiment: Cytotoxicity against human COLO205 cells assessed as age growth inhibition at 100 uM after 48 hrs by sulforhodamine B assay; assay type: functional; conditions: COLO 205, 48 h, read-out: GI
HEp-2 [30] = experiment: Cytotoxicity against human HEP2 cells assessed as age growth inhibition at 50 uM after 48 hrs by sulforhodamine B assay; assay type: functional; conditions: HEp-2, 48 h, read-out: GI
HCT-15 [31] = experiment: Cytotoxicity against human HCT15 cells assessed as age growth inhibition at 50 uM after 48 hrs by sulforhodamine B assay; assay type: functional; conditions: HCT-15, 48 h, read-out: GI
IGROV-1 [32] = experiment: Antiproliferative activity against human IGROV1 cells after 48 hrs by sulforhodamine B assay; assay type: functional, cell-based; conditions: IGROV-1, 48 h
SF-295 [33] = experiment: Cytotoxicity against human SF295 cells assessed as age growth inhibition at 100 uM after 48 hrs by sulforhodamine B assay; assay type: functional; conditions: SF-295, 48 h, read-out: GI
SF-295 [34] = experiment: Cytotoxicity against human SF295 cells assessed as age growth inhibition at 50 uM after 48 hrs by sulforhodamine B assay; assay type: functional; conditions: SF-295, 48 h, read-out: GI
SK-OV-3 [35] = experiment: Antiproliferative activity against human SKOV3 cells after 48 hrs by sulforhodamine B assay; assay type: functional, cell-based; conditions: SK-OV-3, 48 h
COLO 205 [36] = experiment: Antiproliferative activity against human COLO205 cells after 48 hrs by sulforhodamine B assay; assay type: functional, cell-based; conditions: COLO 205, 48 h

COc1ccc([C@H]2OC(=O)[C@@H]3C=C4C(C)(C)CCC[C@]4(C)[C@H]23)cc1
IC50 (A549 [1]): 89.1 µM | inhibition of growth at 10 µM (SK-OV-3 [2]): 0% | inhibition of growth at 100 µM (A549 [3]): 55% | IC50 (HOP-62 [4]): 94.8 µM | inhibition of growth at 50 µM (SK-OV-3 [5]): 0% | IC50 (SF-295 [6]): > 100 µM | inhibition of growth at 10 µM (COLO 205 [7]): 0% | inhibition of growth at 100 µM (IGROV-1 [8]): 51% | inhibition of growth at 10 µM (HEp-2 [9]): 3% | IC50 (HEp-2 [10]): > 100 µM | inhibition of growth at 100 µM (DU-145 [11]): 43% | inhibition of growth at 50 µM (A549 [12]): 31% | inhibition of growth at 10 µM (SF-295 [13]): 0% | inhibition of growth at 10 µM (IGROV-1 [14]): 3% | inhibition of growth at 10 µM (DU-145 [15]): 8% | inhibition of growth at 100 µM (HOP-62 [16]): 52% | inhibition of growth at 50 µM (HOP-62 [17]): 30% | IC50 (HCT-15 [18]): 77.1 µM | inhibition of growth at 100 µM (SK-OV-3 [19]): 21% | inhibition of growth at 10 µM (A549 [20]): 8% | IC50 (DU-145 [21]): > 100 µM | inhibition of growth at 50 µM (IGROV-1 [22]): 30% | inhibition of growth at 50 µM (COLO 205 [23]): 15% | inhibition of growth at 10 µM (HOP-62 [24]): 10% | inhibition of growth at 100 µM (HCT-15 [25]): 55% | inhibition of growth at 10 µM (HCT-15 [26]): 16% | inhibition of growth at 100 µM (HEp-2 [27]): 27% | inhibition of growth at 50 µM (DU-145 [28]): 12% | inhibition of growth at 100 µM (COLO 205 [29]): 52% | inhibition of growth at 50 µM (HEp-2 [30]): 23% | inhibition of growth at 50 µM (HCT-15 [31]): 45% | IC50 (IGROV-1 [32]): 94.2 µM | inhibition of growth at 100 µM (SF-295 [33]): 16% | inhibition of growth at 50 µM (SF-295 [34]): 16% | IC50 (SK-OV-3 [35]): > 100 µM | IC50 (COLO 205 [36]): 99.2 µM

COc1cccc2c1C(=O)c1c(O)c3c(c(O)c1C2=O)C[C@@](O)(C(=O)CO)C[C@@H]3O[C@H]1C[C@H](N)[C@H](O)[C@H](C)O1 [DOXORUBICIN]
inhibition of growth at 10 µM (SF-295 [13]): 54% | inhibition of growth at 10 µM (DU-145 [15]): 64% | inhibition of growth at 10 µM (A549 [20]): 47% | inhibition of growth at 10 µM (HOP-62 [24]): 69% | inhibition of growth at 10 µM (HCT-15 [26]): 54%

CO[C@@]12[C@H](COC(N)=O)C3=C(C(=O)C(C)=C(N)C3=O)N1C[C@@H]1N[C@@H]12 [MITOMYCIN]
inhibition of growth at 10 µM (DU-145 [15]): 63% | inhibition of growth at 10 µM (A549 [20]): 55%

CC(=O)O[C@H]1C(=O)[C@@]2(C)[C@H]([C@H](OC(=O)c3ccccc3)[C@]3(O)C[C@H](OC(=O)[C@H](O)[C@@H](NC(=O)c4ccccc4)c4ccccc4)C(C)=C1C3(C)C)[C@]1(OC(C)=O)CO[C@@H]1C[C@@H]2O [PACLITAXEL]
inhibition of growth at 10 µM (COLO 205 [7]): 9% | inhibition of growth at 10 µM (HEp-2 [9]): 29% | inhibition of growth at 10 µM (SF-295 [13]): 22% | inhibition of growth at 10 µM (IGROV-1 [14]): 15% | inhibition of growth at 10 µM (DU-145 [15]): 52% | inhibition of growth at 10 µM (A549 [20]): 40% | inhibition of growth at 10 µM (HOP-62 [24]): 26% | inhibition of growth at 10 µM (HCT-15 [26]): 40%

Source: ChEMBL document CHEMBL1140040, “Synthesis and cytotoxic activity of some novel polycyclic gamma-butyrolactones” (Bioorg Med Chem Lett, 2008)
